Earlier results in US20250114375A1, “PHARMACEUTICAL COMPOSITION OF LIFITEGRAST AND LOTEPREDNOL ETABONATE” (ORBICULAR PHARMACEUTICAL TECHNOLOGIES PRIVATE LIMITED, priority 2022, published 2025).

Tests used:
[1] = test system: conjunctival goblet cells; settings: in vivo
glucocorticoid receptors = biological target: T1, glucocorticoid receptors (Homo sapiens, UniProt P04150); settings: inactive carboxylic acid metabolite of loteprednol etabonate
T1 sequence (P04150 1-777): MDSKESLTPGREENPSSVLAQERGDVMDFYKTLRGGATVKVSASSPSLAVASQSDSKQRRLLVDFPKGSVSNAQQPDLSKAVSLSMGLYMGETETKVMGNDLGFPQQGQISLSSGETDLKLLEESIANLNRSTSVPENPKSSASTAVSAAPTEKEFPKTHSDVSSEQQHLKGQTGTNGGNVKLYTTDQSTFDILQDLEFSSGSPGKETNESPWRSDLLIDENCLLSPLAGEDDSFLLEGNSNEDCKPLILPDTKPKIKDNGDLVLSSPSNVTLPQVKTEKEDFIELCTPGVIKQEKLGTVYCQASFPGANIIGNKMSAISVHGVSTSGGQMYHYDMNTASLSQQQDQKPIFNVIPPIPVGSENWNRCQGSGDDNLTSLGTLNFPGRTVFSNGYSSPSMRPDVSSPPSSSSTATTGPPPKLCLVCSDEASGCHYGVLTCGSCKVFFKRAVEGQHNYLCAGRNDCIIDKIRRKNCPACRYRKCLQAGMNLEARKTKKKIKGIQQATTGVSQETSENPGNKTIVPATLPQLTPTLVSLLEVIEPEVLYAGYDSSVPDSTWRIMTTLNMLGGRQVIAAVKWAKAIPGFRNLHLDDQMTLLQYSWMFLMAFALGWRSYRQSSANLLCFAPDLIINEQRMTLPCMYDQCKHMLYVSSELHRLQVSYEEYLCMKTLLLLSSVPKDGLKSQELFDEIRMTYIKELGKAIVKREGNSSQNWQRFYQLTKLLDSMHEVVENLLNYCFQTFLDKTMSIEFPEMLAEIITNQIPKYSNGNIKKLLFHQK

Row | SMILES | increase of goblet cell area [1] [%] | increase of the number of conjunctival goblet cells [1] [%] | binding to glucocorticoid receptors (glucocorticoid receptors)
1 | CS(=O)(=O)c1cccc(C[C@H](NC(=O)c2c(Cl)cc3c(c2Cl)CCN(C(=O)c2ccc4ccoc4c2)C3)C(=O)O)c1 [Lifitegrast] | 22 | 39 | 
2 | CCOC(=O)OC1(C(=O)O)CCC2C3CCC4=CC(=O)C=CC4(C)C3C(O)CC21C (stereo not drawn) [PJ-91] |  |  | does not bind
